# Results published in patent publication US6387905B2, “Compounds useful for inhibition of farnesyl protein transferase” (Schering Corporation, priority 1996, dated 2002).
# Where “and” joins values, the source holds several entries; their conditions need not be identical. Equal entries are not always repeated. Where two headings read alike, the source gives them in different places.
# Assays:
# [1] = biological target: farnesyl protein transferase (FPT), K-ras (Homo sapiens, UniProt P49354+P49356); assay: FPT IC50 (K-ras), inhibition of farnesyl protein transferase, in vitro enzyme assay; assay type: biochemical
# Method: (§1) FPT IC50 (inhibition of farnesyl protein transferase, in vitro enzyme assay) and COS Cell IC50 (Cell-Based Assay) were determined following the assay procedures described in WO 95/10516, published Apr. 20, 1995. GGPT IC50 (inhibition of geranylgeranyl protein transferase, in vitro enzyme assay), Cell Mat Assay, and anti-tumor activity (in vivo anti-tumor studies) could be determined by the assay procedures described in WO 95/10516. The disclosure of WO 95/10516 is incorporated herein by reference thereto.
# Human tumor cells = assay: Soft Agar Assay (anchorage-independent growth); assay type: cell-based; conditions: Homo sapiens
# Method: Anchorage-independent growth is a characteristic of tumorgenic cell lines. Human tumor cells are suspended in growth medium containing 0.3% agarose and an indicated concentration of a farnesyl transferase inhibitor. The solution is overlayed onto growth medium solidified with 0.6% agarose containing the same concentration of farnesyl transferase inhibitor as the top layer. After the top layer is solidified, plates are incubated for 10-16 days at 37° C. under 5% CO2 to allow colony outgrowth. After incubation, the colonies are stained by overlaying the agar with a solution of MTT (3-[4,5-dimethyl-thiazol-2-yl]-2,5-diphenyltetrazolium bromide, Thiazolyl blue) (1 mg/mL in PBS). Colonies can be counted and the IC50's can be determined.
# COS Cell = COS Cell IC50 (Cell-Based Assay)
# Method: as §1
# [2] = biological target: farnesyl protein transferase (FPT), H-ras (Homo sapiens, UniProt P49354+P49356); assay: FPT IC50 (H-ras), inhibition of farnesyl protein transferase, in vitro enzyme assay; assay type: biochemical; conditions: Table 4; read-out: FPT IC50
# Method: as §1
# [3] = Table 5, read-out: Soft Agar IC50
# [4] = COS, Table 5, read-out: Cos Cell IC50
# [5] = read-out: Soft Agar IC50, Table 5
# [6] = COS, read-out: Cos Cell IC50, Table 5
Compound,IC50 (Human tumor cells; [3]),IC50 [2],IC50 (COS Cell; [4]),other results
O=C(CC1CCN(C(=O)CN2CCS(=O)(=O)CC2)CC1)N1CCC([C@H]2c3ncc(Br)cc3CCc3cc(Cl)cc(Br)c32)CC1 [Example 6.0-B],–,–,–,IC50 [1]: 0.0145 µM
O=C(CC1CCN(C(=O)Cn2cnc3cccnc32)CC1)N1CCC([C@H]2c3ncc(Br)cc3CCc3cc(Cl)cc(Br)c32)CC1 [Example 13.0-B],–,–,–,IC50 [1]: 0.0197 µM
O=C(CC1CCN(C(=O)Cn2cnc3ccccc32)CC1)N1CCC([C@H]2c3ncc(Br)cc3CCc3cc(Cl)cc(Br)c32)CC1 [Example 12.0-B],–,–,–,IC50 [1]: 0.0267 µM
COC(=O)Cc1cn(CC(=O)N2CCC(CC(=O)N3CCC([C@H]4c5ncc(Br)cc5CCc5cc(Cl)cc(Br)c54)CC3)CC2)cn1 [Cmpd 56.0-B],> 0.5 µM,0.0033 µM,0.05 µM,–
O=C(O)CCCCCC(=O)N1CCC(CC(=O)N2CCC([C@H]3c4ncc(Br)cc4CCc4cc(Cl)cc(Br)c43)CC2)CC1 [Example 80],–,0.0014 µM,–,IC50 (Human tumor cells; [5]): 0.25 µM; IC50 (COS Cell; [6]): 0.025 µM
O=C(CO/N=C/c1cc[n+]([O-])cc1)N1CCC(CC(=O)N2CCC([C@H]3c4ncc(Br)cc4CCc4cc(Cl)cc(Br)c43)CC2)CC1 [Cmpd 22.0-B],0.0195 µM,0.0018 µM,0.035 µM,–
O=C(CC1CCN(C(=O)C2CC(O)CN2)CC1)N1CCC([C@H]2c3ncc(Br)cc3CCc3cc(Cl)cc(Br)c32)CC1 (stereo partly drawn) [Cmpd 63.0-B],0.5 µM,0.0035 µM,0.055 µM,–
Cc1cn(CC(=O)N2CCC(CC(=O)N3CCC([C@H]4c5ncc(Br)cc5CCc5cc(Cl)cc(Br)c54)CC3)CC2)cn1 [Cmpd 11.0-B],> 0.5 µM,0.0016 µM,0.029 µM,–
Cc1cn(CC(=O)N2CCC(CC(=O)N3CCC([C@H]4c5ncc(Br)cc5CCc5cc(Cl)cc(Br)c54)CC3)CC2)cn1 [Example 11.0-B],–,–,–,IC50 [1]: 0.0126 µM
O=C(CC1CCN(C(=O)CN2CCS(=O)(=O)CC2)CC1)N1CCC([C@H]2c3ncc(Br)cc3CCc3cc(Cl)cc(Br)c32)CC1 [Cmpd 6.0-B],0.21 µM,0.0027 µM,0.03 µM,–
O=C(O)CC(O)CC(=O)N1CCC(CC(=O)N2CCC([C@H]3c4ncc(Br)cc4CCc4cc(Cl)cc(Br)c43)CC2)CC1 (stereo partly drawn) [Example 74.0-B],0.5 µM,0.0017 µM,0.04 µM,–
O=C(CO/N=C/c1ccccc1O)N1CCC(CC(=O)N2CCC([C@H]3c4ncc(Br)cc4CCc4cc(Cl)cc(Br)c43)CC2)CC1 [Cmpd 95.0-B],> 0.5 µM,0.0083 µM,0.011 µM,–
O=C(CC1CCN(C(=O)CN2CCCCC2)CC1)N1CCC([C@H]2c3ncc(Br)cc3CCc3cc(Cl)cc(Br)c32)CC1 [Cmpd 75.0-B],0.15 µM,0.0047 µM,0.01 µM,–
O=C(CC1CCN(C(=O)CN2C(=O)CSC2=O)CC1)N1CCC([C@H]2c3ncc(Br)cc3CCc3cc(Cl)cc(Br)c32)CC1 [Cmpd 79.0-B],> 0.5 µM,0.0044 µM,0.15 µM,–
O=C(O)CC(=O)N1CCC(CC(=O)N2CCC([C@H]3c4ncc(Br)cc4CCc4cc(Cl)cc(Br)c43)CC2)CC1 [Example 14.0-B],–,0.0009 µM and 0.0019 µM,–,"IC50 (Human tumor cells; [5]): > 0.5 µM; IC50 (COS Cell; [6]): 0.25 µM; IC50 (COS Cell; read-out: Cos Cell IC50, Table 5): 0.2 µM"
N#CCC(=O)N1CCC(CC(=O)N2CCC([C@H]3c4ncc(Br)cc4CCc4cc(Cl)cc(Br)c43)CC2)CC1 [Cmpd 44.0-B],0.12 µM,0.0026 µM,< 0.01 µM,–
Cc1nccn1CC(=O)N1CCC(CC(=O)N2CCC([C@H]3c4ncc(Br)cc4CCc4cc(Cl)cc(Br)c43)CC2)CC1 [Example 10.0-B],–,–,–,IC50 [1]: 0.0158 µM
Cc1nccn1CC(=O)N1CCC(CC(=O)N2CCC([C@H]3c4ncc(Br)cc4CCc4cc(Cl)cc(Br)c43)CC2)CC1 [Cmpd 10.0-B],> 0.3 µM,0.0025 µM,0.02 µM,–
CC(=O)C(=O)N1CCC(CC(=O)N2CCC([C@H]3c4ncc(Br)cc4CCc4cc(Cl)cc(Br)c43)CC2)CC1 [Cmpd 72.0-B],0.32 µM,0.0054 µM,0.01 µM,–
O=C(CC1CCOCC1)N1CCC(CC(=O)N2CCC([C@H]3c4ncc(Br)cc4CCc4cc(Cl)cc(Br)c43)CC2)CC1 [Cmpd 85.0-B],0.333 µM,0.005 µM,0.014 µM,–
O=C(CC1CCN(C(=O)Cn2cnc3cccnc32)CC1)N1CCC([C@H]2c3ncc(Br)cc3CCc3cc(Cl)cc(Br)c32)CC1 [Cmpd 13.0-B],> 0.5 µM,0.0041 µM,0.025 µM,–
CCOC(=O)CC(CC(=O)N1CCC(CC(=O)N2CCC(C3c4ncc(Br)cc4CCc4cc(Cl)cc(Br)c43)CC2)CC1)OC(C)=O (stereo not drawn) [Example 16.0-B],0.09 µM,0.0053 µM,0.016 µM,–
O=C(CC1CCN(C(=O)CC2CCCO2)CC1)N1CCC([C@H]2c3ncc(Br)cc3CCc3cc(Cl)cc(Br)c32)CC1 (stereo partly drawn) [Cmpd 114.4-B],0.363 µM,0.0078 µM,0.01 µM,–
O=C(O)CCCCC(=O)N1CCC(CC(=O)N2CCC([C@H]3c4ncc(Br)cc4CCc4cc(Cl)cc(Br)c43)CC2)CC1 [Example 81],–,0.0036 µM,–,IC50 (Human tumor cells; [5]): 0.48 µM; IC50 (COS Cell; [6]): 0.03 µM
O=C(CCN1CCCCC1)N1CCC(CC(=O)N2CCC([C@H]3c4ncc(Br)cc4CCc4cc(Cl)cc(Br)c43)CC2)CC1 [Example 7.0-B],–,–,–,IC50 [1]: 0.0154 µM
CC(C)=NOCC(=O)N1CCC(CC(=O)N2CCC([C@H]3c4ncc(Br)cc4CCc4cc(Cl)cc(Br)c43)CC2)CC1 [Example 9.0-B],–,–,–,IC50 [1]: 0.041 µM
O=C(CC1CCN(C(=O)Cn2cnc([N+](=O)[O-])c2)CC1)N1CCC([C@H]2c3ncc(Br)cc3CCc3cc(Cl)cc(Br)c32)CC1 [Cmpd 26.0-B],> 0.5 µM,0.0032 µM,0.03 µM,–
O=C(O)CCC(=O)N1CCC(CC(=O)N2CCC([C@H]3c4ncc(Br)cc4CCc4cc(Cl)cc(Br)c43)CC2)CC1 [Example 78],–,0.0012 µM,–,IC50 (Human tumor cells; [5]): > 0.5 µM; IC50 (COS Cell; [6]): 0.075 µM
CCOC(=O)c1ncn(CC(=O)N2CCC(CC(=O)N3CCC([C@H]4c5ncc(Br)cc5CCc5cc(Cl)cc(Br)c54)CC3)CC2)c1C [Cmpd 54.0-B],> 0.5 µM,0.0039 µM,0.1 µM,–
CC(C)=NOCC(=O)N1CCC(CC(=O)N2CCC([C@H]3c4ncc(Br)cc4CCc4cc(Cl)cc(Br)c43)CC2)CC1 [Cmpd 9.0-B],> 0.5 µM,0.0058 µM,0.025 µM,–

# More lines, main results first:
IC50 (Human tumor cells; [3]),IC50 [2],Compound,IC50 (COS Cell; [4]),other results
0.22 µM,0.0041 µM,NS(=O)(=O)NCC(=O)N1CCC(CC(=O)N2CCC([C@H]3c4ncc(Br)cc4CCc4cc(Cl)cc(Br)c43)CC2)CC1 [Cmpd 39.0-B],0.016 µM,–
0.395 µM,0.0039 µM,NC(=O)CCCC(=O)N1CCC(CC(=O)N2CCC([C@H]3c4ncc(Br)cc4CCc4cc(Cl)cc(Br)c43)CC2)CC1 [Cmpd 114.0-B],0.035 µM,–
> 0.5 µM,0.0071 µM,O=C(Cc1cccs1)N1CCC(CC(=O)N2CCC([C@H]3c4ncc(Br)cc4CCc4cc(Cl)cc(Br)c43)CC2)CC1 [Cmpd 82.0-B],< 0.01 µM,–
> 0.5 µM,0.0022 µM,NCCC(=O)N1CCC(CC(=O)N2CCC([C@H]3c4ncc(Br)cc4CCc4cc(Cl)cc(Br)c43)CC2)CC1 [Cmpd 88.0-B],0.023 µM,–
0.432 µM,0.0072 µM,O=C(CC1CCN(C(=O)CC2CCCCO2)CC1)N1CCC([C@H]2c3ncc(Br)cc3CCc3cc(Cl)cc(Br)c32)CC1 (stereo partly drawn) [Cmpd 114.3-B],0.011 µM,–
0.3 µM,0.0064 µM,COC(=O)c1cccn1CC(=O)N1CCC(CC(=O)N2CCC([C@H]3c4ncc(Br)cc4CCc4cc(Cl)cc(Br)c43)CC2)CC1 [Cmpd 35.0-B],0.03 µM,"IC50 (COS Cell; Table 5, read-out: Cos Cell IC50): 0.05 µM"
> 0.5 µM,0.0087 µM,CC(C)(C)OC(=O)NCCCC(=O)N1CCC(CC(=O)N2CCC([C@H]3c4ncc(Br)cc4CCc4cc(Cl)cc(Br)c43)CC2)CC1 [Example 89.0-B],0.55 µM,–
0.075 µM,0.0039 µM,O=C(CC1CCN(C(=O)CC2COCCO2)CC1)N1CCC([C@H]2c3ncc(Br)cc3CCc3cc(Cl)cc(Br)c32)CC1 (stereo partly drawn) [Cmpd 114.2-B],0.01 µM,–
0.46 µM,0.0042 µM,O=C(CC1CCN(C(=O)Cn2cccc2)CC1)N1CCC([C@H]2c3ncc(Br)cc3CCc3cc(Cl)cc(Br)c32)CC1 [Cmpd 34.0-B],0.009 µM,–
> 0.5 µM,0.0028 µM,CC(C)=NOCCC(=O)N1CCC(CC(=O)N2CCC([C@H]3c4ncc(Br)cc4CCc4cc(Cl)cc(Br)c43)CC2)CC1 [Cmpd 23.0-B],< 0.01 µM,–
> 0.5 µM,0.003 µM,O=C(CC1CCN(C(=O)Cn2cnc3ccccc32)CC1)N1CCC([C@H]2c3ncc(Br)cc3CCc3cc(Cl)cc(Br)c32)CC1 [Cmpd 12.0-B],0.02 µM,–
0.21 µM,0.0032 µM,CN(C)S(=O)(=O)NCC(=O)N1CCC(CC(=O)N2CCC([C@H]3c4ncc(Br)cc4CCc4cc(Cl)cc(Br)c43)CC2)CC1 [Cmpd 38.0-B],0.01 µM,–
